Reference: paper PMC12122428, “Discovery of non-covalent rhinovirus 3Cpro inhibitors by molecular docking, in vitro assays, molecular dynamics simulations and DFT analyses” (Frontiers in Pharmacology, 2025)
Like-named read-outs stand apart in the source and are kept apart here.

What was measured:
[1] = biological target: T1, HRV-14 3Cpro (Human rhinovirus 14, UniProt P03303); conditions: cited from earlier work
T1 construct: most efficiently processed substrate by HRV-14 3Cpro (Acro, Beijing, China); purchased Acro, Beijing, China

[2] = biological target: T1, HRV-14 3Cpro; test: HRV-14 3Cpro enzyme inhibition assay (Dabcyl-[…]-Edans cleavage, fluorescence); format: biochemical; conditions: for inhibition at 50 µM / Inhibition % HRV 3Cpro @ 50 μM: 50 μM compound, single point; for IC50: concentration-response, 50 μM to 0.617 μM, n = 5, mean ± SEM
Procedure: In the in vitro cleavage assay, the peptide Dabcyl-[…]-Edans was identified as the most efficiently processed substrate by HRV-14 3Cpro (Acro, Beijing, China), and was subsequently utilized in the enzyme inhibition assay. A total of 44 candidate compounds were purchased from Topscience (TargetMol, United States). Dimethyl sulfoxide (DMSO) (Innochem, Beijing, China) served as the solvent for dissolving the compounds, and all solutions were stored at −20°C. The assays were conducted using 100 μL reaction samples, which comprised 1 μL of protease, 10 μL of a 10 μM substrate solution, and varying concentrations of the tested compounds (ranging from 50 μM to 0.617 μM) in a 50 mM Tris buffer at pH 7.0. To evaluate the inhibitory effects of the compounds, the protease and each compound were preincubated at 37°C for 30 min before the addition of the substrate. The reaction mixture was subsequently incubated for 1 h at 37°C. Fluorescence measurements were performed using a multifunction enzyme label reader (SpectraMax M5, Molecular Devices), set to an excitation wavelength of 340 nm and an emission wavelength of 490 nm. […] The inhibition rate was quantified according to the following formula: Inhibition rate 100%=RFUemzyme−RFUsample/RFUemzyme−RFUcontrol×100%

[3] = test system: HRV-14; conditions: ref Binford et al., 2007; Zalman et al., 2000; read-out: antiviral activity EC50; cited from earlier work

T1 sequence (P03303 1538-1719): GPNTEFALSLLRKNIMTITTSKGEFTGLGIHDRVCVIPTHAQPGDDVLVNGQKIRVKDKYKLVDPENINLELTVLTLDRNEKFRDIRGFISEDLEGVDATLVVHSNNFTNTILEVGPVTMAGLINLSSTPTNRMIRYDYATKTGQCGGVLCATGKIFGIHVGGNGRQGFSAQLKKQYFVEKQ

Structure (SMILES) | pIC50 ([1]; non-covalent inhibitor, ref Baxter et al., 2011) | inhibition at 50 µM [2] [%] | Inhibition % HRV 3Cpro @ 50 μM [2] [%] | IC50 [2] [nM] | EC50 [3] [nM] | IC50 ([1]; macrocyclic covalent inhibitor, ref Kawatkar et al., 2016, Namoto et al., 2018) [nM]
O=c1cc(-c2cccnc2)[nH]c2cc(Cc3ccccc3)ccc12 [Compound 14] | 4.7 | – | – | – | – | –
Nc1c(NC(=O)NC[C@H]2CCCO2)c(-c2ccccc2)nn1-c1ccc(C(F)(F)F)cc1 [Compound S21] | – | 80.5 | 80.5 | 30400 ± 670 | – | –
O=C(COC(=O)[C@@H](CC(=O)c1ccccc1)Nc1ccc(F)cc1)c1ccccc1 [Compound S33] | – | 96.5 | – | 11300 ± 710 | – | –
CCOc1ccc(NC(=O)[C@H](CC(C)C)NC(=O)[C@H]2CC[C@@H](C)CC2)cc1 [Compound S34] | – | 75.6 | 75.5 | 24100 ± 550 | – | –
CCC(CC)C(=O)Nc1cccc(C(=O)Nc2ccccc2C(=O)Nc2ccc(OC)cc2)c1 [Compound S43] | – | 88.8 | 88.7 | 2330 ± 500 | – | –
CCOC(=O)/C=C/[C@H](C[C@@H]1CCNC1=O)NC(=O)[C@@H](CC(=O)[C@@H](NC(=O)c1cc(C)on1)C(C)C)Cc1ccc(F)cc1 [Rupintrivir, reference compound] | – | – | – | 220 ± 340 | 12 | –
Cc1occc1C(=O)N[C@@H]1C(=O)N[C@@H](Cc2ccc(F)cc2)C(=O)N[C@H](C=O)CCC(=O)N(C)Cc2cccc1c2 [compound 10] | – | – | – | – | – | 8
